The subject of series [1] is MCF7. Put plainly: Induction of DNA damage-mediated apoptosis in human MCF7 cells assessed as phosphorylation of p53 at Ser-15 residue after 24 hrs by DAPI staining based immunocytochemistry analysis. In kind it is cell-based.
Series [2] in a line: Cytotoxicity against human WI38 cells assessed as cell growth inhibition after 24 hrs by MTT assay. In kind it is toxicity, cell-based, WI-38. Background: Formazan colour is commonly taken as a measure of viable cells.
The test system of series [3] is MCF7. Put plainly: Induction of DNA damage-mediated apoptosis in human MCF7 cells assessed as decrease in HDAC1 expression in cytoplasmic fraction at 8 to 16 nM after 24 hrs by immunoblot analysis. In kind it is cell-based. In general terms: Immunoblotting shows a protein as a band on a membrane.
The subject of series [4] is MCF7. Put plainly: Induction of apoptosis in human MCF7 cells assessed as early apoptotic cells at 12 nM after 24 hrs by Annexin V-FITC/propidium iodide-dual staining based FACS analysis (reference value: 2.3%). In kind it is functional. On the technique in general: Flow cytometry measures light scatter and fluorescence of single cells or particles in a stream.
In series [5] the test system is MCF7. Put plainly: Induction of DNA damage-mediated apoptosis in human MCF7 cells assessed as increase in Bax/Bcl2 ratio after 24 hrs by immunoblot analysis. In kind it is cell-based.
Series [6] deals with MCF7. Description: Antiproliferative activity against human MCF7 cells assessed as effect on cellular morphology after 24 hrs by phase contrast microscopic method. In kind it is functional, cell-based.
The subject of series [7] is MCF7. Put plainly: Induction of DNA damage-mediated apoptosis in human MCF7 cells assessed as increase in E2F1 expression in nuclear fraction after 24 hrs by immunoblot analysis. In kind it is cell-based.
For series [8], the system named is MCF7. Put plainly: Induction of DNA double strand breaks in human MCF7 cells assessed as activation of phosphorylated Chk2 at Thr68 residue after 24 hrs immunoblot analysis. In kind it is cell-based.
In series [9] the test system is MCF7. Put plainly: Induction of apoptosis in human MCF7 cells assessed as late apoptotic cells at 12 nM after 24 hrs by Annexin V-FITC/propidium iodide-dual staining based FACS analysis (reference value: 0.1%). In kind it is functional.
The subject of series [10] is MCF7. Put plainly: Induction of apoptosis in human MCF7 cells assessed as late apoptotic cells at 8 nM after 24 hrs by Annexin V-FITC/propidium iodide-dual staining based FACS analysis (reference value: 0.1%). In kind it is functional.
Series [11] deals with MCF7. Description: Induction of apoptosis in human MCF7 cells assessed as early apoptotic cells at 16 nM after 24 hrs by Annexin V-FITC/propidium iodide-dual staining based FACS analysis (reference value: 2.3%). In kind it is functional.
For another series, the species on record is Bos taurus. Description: Binding affinity to calf thymus DNA assessed as decrease in […] at 50 uM measured at 260 nm by UV-Vis spectrophotometric analysis.
Series [12] deals with MCF7. Description: Induction of DNA double strand breaks in human MCF7 cells assessed as gamma-H2AX foci at near IC50 after 24 hrs by DAPI staining based immunofluorescence assay. In kind it is cell-based.
A short description of series [13]: Cell cycle arrest in human MCF7 cells assessed as G0/G1 phase at 8 nM after 24 hrs by propidium iodide staining based FACS analysis (reference value: 43.9%). In kind it is functional.
A short description of series [14]: Cytotoxicity against human HepG2 cells assessed as cell growth inhibition after 24 hrs by MTT assay. In kind it is functional, cell-based. As to conditions: HepG2, 24 h.
For series [15], the system named is MCF7. Put plainly: Induction of DNA damage-mediated apoptosis in human MCF7 cells assessed as deactivation of Akt at 12 nM after 2 hrs by immunoblot analysis. In kind it is cell-based.
Series [16] deals with MCF7. Description: Induction of DNA damage-mediated apoptosis in human MCF7 cells assessed as downregulation of HDAC2 after 24 hrs by DAPI staining based immunocytochemistry analysis. In kind it is cell-based.
Series [17] deals with MCF7. Description: Induction of DNA damage-mediated apoptosis in human MCF7 cells assessed as increase in Rb-E2F1 interaction at 8 to 16 nM after 24 hrs by co-immunoprecipitation analysis. In kind it is cell-based.
In series [18] the test system is MCF7. Description: Binding affinity to DNA in human MCF7 cells assessed as formation of DNA double strand breaks after 24 hrs by neutral comet assay. In kind it is cell-based.
For series [19], the system named is MCF7. Description: Induction of DNA damage-mediated apoptosis in human MCF7 cells assessed as increase in cleaved caspase-3 level at 8 to 16 nM after 24 hrs by DAPI staining based immunocytochemistry analysis. In kind it is cell-based.
The subject of series [20] is MCF7. Put plainly: Antiproliferative activity against human MCF7 cells assessed as reduction in colony formation at 8 to 16 nM after 21 days by crystal violet staining based clonogenic assay. In kind it is functional, cell-based.
The test system of series [21] is MCF7. Description: Induction of DNA damage-mediated apoptosis in human MCF7 cells assessed as decrease in HDAC3 expression in nuclear fraction at 8 to 16 nM after 24 hrs by immunoblot analysis. In kind it is cell-based.
The subject of series [22] is MCF7. Put plainly: Induction of DNA damage-mediated apoptosis in human MCF7 cells assessed as decrease in HDAC1 levels in nuclear fraction at 8 to 16 nM after 24 hrs by immunoblot analysis. In kind it is cell-based.

For orientation: IC50 means the midpoint of a concentration-inhibition curve.

Active and inactive are the calls of the source. The calls are words filed in the database; no cut-off is given here.

For `O=c1cc(OCc2ccccc2)c2ccc3ccccc3c2[nH]1`, the Activity result was “Dose-dependent effect” with MCF7 [1]; 39% in the series on MCF7 [4]; “Dose-dependent effect” in the series on MCF7 [5]; “Dose-dependent effect” in the series on MCF7 [6]; “Dose-dependent effect” in the series with MCF7 [8]; 5.8% with MCF7 [9]. Besides, the Activity in the series on MCF7 [10] was 7.2%; in the series on MCF7 [11], 43.5%; in the series on MCF7 [12], 29.9%; in series [13] it was 55.1%; with MCF7 [16], “Dose-dependent effect”; in the series with MCF7 [18] it was “Dose-dependent effect”. The IC50 at 24 h in series [2] was greater than 100 µM. Also, the outcome with MCF7 [3], with MCF7 [7], in the series filed under Bos taurus, in the series with MCF7 [15], in the series on MCF7 [17] and with MCF7 [19] was Active. Also, the outcome with MCF7 [20], in the series with MCF7 [21] and in the series on MCF7 [22] was Active. In addition, the IC50 in series [14] came to 37 µM.

For the origin of these results see ChEMBL document CHEMBL3871282, “Neo-tanshinlactone D-ring modified novel analogues induce apoptosis in human breast cancer cell via DNA damage” (Bioorg Med Chem, 2017).
